Experimental data from US20060258692A1, “Quinazolinone compositions for regulation of gene expression related to pathological processes” (priority 2002, published 2006).

Key:
IGFBP-1 gene expression = assay: Northern blot and in situ hybridization of liver biopsies with IGFBP-1 probe
[1] = tested on: IGFBP-1 in rat primary hepatocytes; assay: IGFBP-1 synthesis in rat primary hepatocytes (Western blot); assay type: cell-based
[2] = tested on: rats insulted with dimethylnitrosamine (DMN) or thioacetamide (TAA); conditions: cited from earlier work
HepG2 cells = assay: HepG2 cell proliferation (cell number); conditions: 24 h, halofuginone at concentration that affect IGFBP-1 synthesis
[3] = tested on: TAA-induced cirrhotic liver; assay: Liver regeneration after 70% partial hepatectomy in TAA-induced cirrhotic rats
IGFBP-3 mRNA = assay: Northern blot of liver biopsies with IGFBP-3 probe
[4] = tested on: IGFBP-1 in HepG2, Huh-7, Hep3B, Det551, ROS and HSC cells; assay: IGFBP-1 synthesis in various cell types (Northern and Western blot); assay type: cell-based, human; rat; conditions: 50 nM halofuginone, serum-free medium, hepatocyte lines vs fibroblasts, osteoblasts
IGFBP-1 in HepG2 cells = assay: IGFBP-1 gene expression and secretion in HepG2 cells, dose and time response
stellate cells (HSC-T6) = assay: Stellate cell motility assay (phagokinetic tracks); conditions: conditioned medium of HepG2 treated with 50 nM halofuginone (contains IGFBP-1) added to HSC
[5] = tested on: collagen α1(I) gene expression; conditions: skin fibroblasts in culture, incl. from scleroderma or cGVHD patients; cited from earlier work
[6] = tested on: rats with TAA-induced liver fibrosis
[7] = tested on: PRL-1 and Apolipoprotein AIV; assay: Northern blot validation of Atlas microarray results in liver biopsies; assay type: in vivo, rat; conditions: TAA vs TAA plus halofuginone

Compound: O=C(CC1NCCC[C@H]1O)Cn1cnc2cc(Br)c(Cl)cc2c1=O (stereo in doubt) [halofuginone, 7-bromo-6-chloro-3-[3-(3-hydroxy-2-piperidinyl)-2-oxopropyl]-4(3H)-quinazolinone]
- effect on TAA-induced down-regulation of IGFBP-1 gene expression (Northern blot) (IGFBP-1 gene expression; after 2 and 4 weeks of treatment): prevented the TAA-induced down-regulation
- effect on TAA-induced reduction in IGFBP-1 gene expression (Northern blot) (IGFBP-1 gene expression; after one week of TAA treatment): without any effect
- level of IGFBP-1 mRNA (Northern blot) (IGFBP-1 gene expression; halofuginone alone): slight effect
- IGFBP-1 gene expression by in situ hybridization, TAA-induced decrease (IGFBP-1 gene expression; liver sections after 4 weeks, TAA plus halofuginone): prevented
- IGFBP-1 synthesis (Western blot) ([1]; halofuginone 1 nM, 24 h): increased the synthesis of IGFBP-1
- fibrotic condition ([2]; given to rats with established fibrosis): almost complete resolution
- HSC activation, increase in collagen α1(I) gene expression and collagen deposition ([2]; rats insulted with DMN or TAA): prevent HSC activation and abolish the increase in collagen α1(I) gene expression and collagen deposition
- cell proliferation (cell number) (HepG2 cells): significant reduction in cell proliferation
- PCNA labeling index ([3]; eight weeks of halofuginone after TAA, 48 hours after 70% PHx, untreated animals 18.8±2.9): 31.4±6.4
- restituted liver mass ([3]; eight weeks of halofuginone in diet after TAA, 48 hours after 70% PHx, control food group 13.7±4.5, p<0.05): 24.2±5.7%
- liver Ishak staging ([3]; halofuginone treatment of TAA cirrhotic rats): decrease
- IGFBP-3 mRNA levels (IGFBP-3 mRNA; after 1 week of treatment, any of the groups): No changes
- effect on TAA-induced increase in IGFBP-3 level (IGFBP-3 mRNA; after 2 and 4 weeks): partially prevented
- IGFBP-3 mRNA levels (IGFBP-3 mRNA; halofuginone alone, any time-points examined): no effect
- cell types responding with IGFBP-1 gene expression and synthesis [4]: Only cells of the hepatocyte origin demonstrated increased IGFBP-1 gene expression and synthesis
- IGFBP-1 gene expression (Northern blot) (IGFBP-1 in HepG2 cells; 10 nM halofuginone, 24 h, further increase at higher concentrations, no expression without halofuginone): increased IGFBP-1 gene expression
- time after halofuginone treatment at which increased IGFBP-1 gene expression was observed (IGFBP-1 in HepG2 cells; 50 nM halofuginone): 6 h
- time after which IGFBP-1 content in the conditioned media increased (IGFBP-1 in HepG2 cells; 50 nM halofuginone): 10 to 15 h
- IGFBP-1 in conditioned medium after halofuginone removal (IGFBP-1 in HepG2 cells; 50 nM halofuginone for 11 h, washed, fresh medium for additional 13 h, compared with untreated cells): high levels of IGFBP-1
- incubation time needed for increase in IGFBP-1 secretion (IGFBP-1 in HepG2 cells; 50 nM halofuginone, medium replaced, IGFBP-1 detected 23 h later): one hour of incubation with halofuginone was sufficient
- concentration at which an increase in the level of IGFBP-1 in conditioned medium starts (Western blot) (IGFBP-1 in HepG2 cells; HepG2, 24 h): ≥ 50 nM
- HSC cell motility (track area) (stellate cells (HSC-T6)): significant inhibition in cell motility
- collagen α1(I) gene expression and collagen production [5]: attenuated
- Ishak staging of fibrosis (grade) ([6]; TAA 200 mg/kg twice weekly plus halofuginone 5 ppm in the diet, 4 weeks, TAA alone grade 5-6): 1-2
- αSMA-positive (activated) stellate cells ([6]; TAA plus halofuginone given orally (5 ppm in diet), 4 weeks, immunohistochemistry): only traces
- collagen level (Sirius red) ([6]; TAA plus halofuginone, 4 weeks): low levels of collagen
- level of TIMP-2 ([6]; TAA plus halofuginone, 4 weeks, compared with TAA-treated rats): reduced
- collagen α1(I) gene expression by remaining stellate cells ([6]; TAA plus halofuginone, 4 weeks, in situ hybridization): low levels
- ECM, collagen, αSMA stellate cells, collagen α1(I) expression, TIMP-2 ([6]; rat, in vivo): No changes
- PRL-1 and Apolipoprotein AIV expression by Northern blotting [7]: confirmed the Atlas microarray findings

Compound: C[C@@H]1C[C@@H]([C@H](O)CC2CC(=O)NC(=O)C2)C(=O)[C@@H](C)C1 [cyclohexamide]
- effect on halofuginone-dependent increase in IGFBP-1 gene expression (IGFBP-1 in HepG2 cells; 10 μg/ml cyclohexamide with 50 nM halofuginone, 24 h): annulled

Compound: insulin: insulin, comparator incubated with rat primary hepatocytes
- IGFBP-1 synthesis (Western blot) ([1]; insulin, 24 h (10 nM, 100 nM elsewhere in the source)): reduction in IGFBP-1 synthesis
